Common to all, as to format: cell-based
Series [1] relates to colon cancer cell line HCT 116. Briefly: Growth profile / viability of HCT116 colon cancer cells, XTT test. The settings on record: Homo sapiens, HCT-116, 96 h, Control DMSO = 100%, read-out: percentage of viable cells, HCT116. The method, boiled down:
(§1)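 Cells were seeded and grown untreated overnight, then exposed to compounds at a final 5 μM (0.4% v/v DMSO). Untreated and 0.4% DMSO-only cells were the controls. Percent viable cells was measured by XTT 96 h after compound addition.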
On the technique in general: Tetrazolium dyes change colour on reduction, which living cells bring about.

Series [2] concerns colon cancer cell line HT29. Nature of the series: Growth profile / viability of HT29 colon cancer cells, XTT test. As to conditions: Homo sapiens, HT-29, 96 h, Control DMSO = 100%, read-out: percentage of viable cells, HT29. The procedure, abridged:
as §1

Series [3] deals with colon cancer cell line RKO. Nature of the series: Growth profile / viability of RKO colon cancer cells, XTT test. As to conditions: 96 h, Control DMSO = 100%, read-out: percentage of viable cells, RKO. The procedure, abridged: as §1
The nature of series [4]: Viability of FS non malignant fibroblastic cells, XTT test. The settings on record: FS cells (non-malignant fibroblastic cell line), Control DMSO = 100%, read-out: percentage of viable cells, FS. The method, boiled down: as §1

Each structure is given as a SMILES string. Read-outs that look alike come from different tables or passages of the source.

On to `CC(C)c1ccc(-c2cn3nc(N4CCC(C(=O)N5CCN(CC(=O)N6CCN(C)CC6)CC5)CC4)sc3n2)cc1` [Compound Z522-0238, 6-(4-isopropylphenyl)-2-[4-({4-[2-(4-methylpiperazin-1-yl)-2-oxoethyl]piperazin-1-yl}carbonyl)piperidin-1-yl]imidazo[2,1-b][1,3,4]thiadiazole], for which the viability at 5 µM in series [1] (first HCT116 column) is 54%; in series [1] (second HCT116 column) it was 49%; in series [2] (first HT29 column), 6%; in series [2] (second HT29 column) it was 7%; in series [3] (first RKO column), 1%; in series [3] (second RKO column) it was 3%. The results for the viability at 96 h, 5 µM in series [4] (first FS column) and in series [4] (second FS column) were 85% and 99%, respectively.

For the molecule `O=C(C1CCN(c2nn3cc(-c4ccc(Cl)cc4)nc3s2)CC1)N1CCN(c2ncccn2)CC1` [Compound Z522-0204, 6-(4-chlorophenyl)-2-{4-[(4-pyrimidin-2-ylpiperazin-1-yl)carbonyl]piperidin-1-yl}imidazo[2,1-b][1,3,4]thiadiazole], the viability at 5 µM in series [1] (first HCT116 column) worked out at 97%; in series [1] (second HCT116 column), 110%; in series [2] (first HT29 column), 105%; in series [2] (second HT29 column) it was 97%; in series [3] (first RKO column), 92%; in series [3] (second RKO column), 76%. Moreover, the viability at 96 h, 5 µM came out at 96% in series [4] (first FS column) and 93% in series [4] (second FS column).

For `Cc1c(-c2ccc(N3CCSCC3)cc2)nc2sc(N3CCC(C(=O)N4CCN(C)CC4)CC3)nn12` [Compound Z522-0184, 5-methyl-2-{4-[(4-methyl-piperazin-1-yl)carbonyl]piperidin-1-yl}-6-(4-thiomorpholin-4-ylphenyl)imidazo [2,1-b][1,3,4]-thiadiazole], the viability at 5 µM in series [1] (first HCT116 column) turned out to be 77%; in series [1] (second HCT116 column) it was 87%; in series [2] (first HT29 column), 50%; in series [2] (second HT29 column), 44%; in series [3] (first RKO column) it was 41%; in series [3] (second RKO column) it was 53%. Besides, the viability at 96 h, 5 µM in series [4] (first FS column) was determined as 71%; in series [4] (second FS column), 86%.

With `O=C(C1CCN(c2nn3cc(-c4ccc(Cl)cc4)nc3s2)CC1)N1CCCCC1CN1CCOCC1` (centres unmarked) [Compound Z522-0213, 6-(4-chlorophenyl)-2-(4-{[2-(morpholin-4-ylmethyl)piperidin-1-yl]carbonyl}piperidin-1-yl)imidazo[2,1-b][1,3,4] thiadiazole], the viability at 5 µM in series [1] (first HCT116 column) was 84%; in series [1] (second HCT116 column), 88%; in series [2] (first HT29 column), 87%; in series [2] (second HT29 column), 99%; in series [3] (first RKO column) it was 18%; in series [3] (second RKO column), 13%. Further, the viability at 96 h, 5 µM in series [4] (first FS column) was 87%; in series [4] (second FS column), 98%.
